Reference: patent US20260248131A1, “AGROCHEMICAL FORMULATIONS COMPRISING CRYSTALLINE FORM A OF 4-[(6-CHLORO-3-PYRIDYL-METHYL )(2,2-DIFL UOROETHYL )AMINO]FURAN-2(5H)-ONE” (BAYER AKTIENGESELLSCHAFT, priority 2022, published 2026)
Converted amounts (≈) assume the structure as drawn.

Columns and labels:
physchem = assay type: physicochemical
Protocol: The water solubility of FPF polymorph A and B was determined by saturating a certain amount of demineralized water with the respective polymorph, stirring the resulting saturated suspension overnight, filtering the undissolved solid residue, and measuring the dissolved concentration of FPF in the filtrate.

[1] = tested on: bird cherry-oat aphid Rhopalosiphum padi; assay: Systemic efficacy of FPF FS 480 as barley seed treatment against aphids; assay type: in vivo; conditions: seed treatment with FS 480
From the text: Physico-chemical properties are key drivers for systemic plant uptake and biological activity. To test the efficacy of different FPF modifications against the bird cherry-oat aphid Rhopalosiphum padi a sufficient number of barley seeds (variety “Scarlett”, thousand kernel weight: 43.6 g) were manually dressed with a defined amount of the Flupyradifurone FS480 formulated with 100% Form A, 100% Form B and a combination of 99% Form A and 1% Form B, respectively. Test concentrations were 0.15 g active ingredient per kg of seed (commercial dose rate in cereals) and 0.075 g active ingredient per kg of seed. Longitudinal boxes were filled with 5,900 g of a sandy loam soil (75.1% sand, 10.3% clay, 14.8% silt, 1.75% humus, pH 6.9) and 15 seeds per box were sown at spacing of approx. 2.5 cm and at depth of 3 cm. After sowing, boxes were watered to reach 50-70% of field capacity and covered with plastic foil until first plants were emerging. Aphid infestation was conducted at the second leaf stage by adding multiple pieces of infested leaf material to each test box. A second re-infestation was carried out at 3 days after the first infestation using methods described previously. The biological activity of tested FPF modifications was evaluated at 3 and 7 days after the initial infestation by a visual assessment of the colonized leaf area in comparison to the untreated and infested control. Results were expressed in percent efficacy. […] Growing conditions were at a constant temperature of 20° C., 50% relative humidity and 14 hours of illumination using sodium pressure lamps. The experiment comprised 3 replicates per treatment.

SMILES | reduced water solubility of FPF form A (physchem) | water solubility compared with form B (physchem) | water solubility of polymorphic form A as share of that of polymorphic form B (physchem) | solubility (physchem; water, thermodynamic from solid, Water Solubility) | systemic biological efficacy compared with form B ([1]; listed as FPF form A) | systemic biological efficacy compared with form B ([1]; listed as form A) | systemic biological efficacy compared with form B ([1]; listed as polymorphic form A) | Water Solubility (physchem)
O=C1C=C(N(Cc2ccc(Cl)nc2)CC(F)F)CO1 [Polymorph A, 4-[(6-chloro-3-pyridylmethyl)(2,2-difluoroethyl)amino]furan-2(5H)-one] | 60% | significantly lower than that of form B | 60% | 2000 µg/mL (≈ 6.93 mM) | does not lead to a reduced biological efficacy in comparison to FPF form B | not reduced | at the same level as that of polymorphic form B | 
O=C1C=C(N(Cc2ccc(Cl)nc2)CC(F)F)CO1 [Polymorph B, 4-[(6-chloro-3-pyridylmethyl)(2,2-difluoroethyl)amino]furan-2(5H)-one, reference compound] |  |  |  |  |  |  |  | 3200 µg/mL
